Measurements: the supplement of paper PMC10307832

Key:
Test in all cases: relative viability (nuclei count vs DMSO), 5 days (fraction); higher = more cells survive
[1] = compound: C1=CC=C2C(=C1)N=C(S2)C(C#N)C3=NC(=NC=C3)NCCC4=CN=CC=C4 + COc1cc2c(Oc3ccc(NC(=O)C4(C(=O)Nc5ccc(F)cc5)CC4)cc3F)ccnc2cc1OCCCN1CCOCC1 [Foretinib] (partner 0.25 µM)
Summary of the method: (§1)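 Five library-drug doses in √10 steps were combined with a fixed anchor-drug dose, or a single drug was given alone, by pin tool to lung cancer cell lines in 1536-well plates the day after seeding. Nuclei were stained and counted after 5 days. Relative viability is the nuclei count in treated wells over that in vehicle wells, taken as the median of duplicate plates.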

[2] = compound: C1=CC=C2C(=C1)N=C(S2)C(C#N)C3=NC(=NC=C3)NCCC4=CN=CC=C4 + CS(=O)(=O)CCNCc1ccc(-c2ccc3ncnc(Nc4ccc(OCc5cccc(F)c5)c(Cl)c4)c3c2)o1 [Lapatinib] (partner 2 µM)
Summary of the method: as §1

Vandetanib + Navitoclax = compound: COc1cc2/c(=N/c3ccc(Br)cc3F)nc[nH]c2cc1OCC1CCN(C)CC1 [Vandetanib] + CC1(C)CCC(c2ccc(Cl)cc2)=C(CN2CCN(c3ccc(C(=O)NS(=O)(=O)c4ccc(N[C@H](CCN5CCOCC5)CSc5ccccc5)c(S(=O)(=O)C(F)(F)F)c4)cc3)CC2)C1 [Navitoclax] (partner 0.5 µM)
Summary of the method: as §1

Vandetanib + Decitabine = compound: COc1cc2/c(=N/c3ccc(Br)cc3F)nc[nH]c2cc1OCC1CCN(C)CC1 [Vandetanib] + Nc1ncn([C@H]2C[C@H](O)[C@@H](CO)O2)c(=O)n1 [Decitabine] (partner 2 µM)
Summary of the method: as §1

| Cell Line | relative viability ([1]; first compound 0.005 µM) | relative viability ([1]; first compound 0.01581 µM) | relative viability ([1]; first compound 0.05 µM) | relative viability ([1]; first compound 0.1581 µM) | relative viability ([1]; first compound 0.5 µM) | relative viability ([2]; first compound 0.01581 µM) | relative viability ([2]; first compound 0.05 µM) | relative viability ([2]; first compound 0.1581 µM) | relative viability ([2]; first compound 0.5 µM) | relative viability (Vandetanib + Navitoclax; first compound 0.02 µM) | relative viability (Vandetanib + Navitoclax; first compound 0.06325 µM) | relative viability (Vandetanib + Navitoclax; first compound 0.2 µM) | relative viability (Vandetanib + Navitoclax; first compound 0.6325 µM) | relative viability (Vandetanib + Navitoclax; first compound 2 µM) | relative viability (Vandetanib + Decitabine; first compound 0.02 µM) | relative viability (Vandetanib + Decitabine; first compound 0.06325 µM) | relative viability (Vandetanib + Decitabine; first compound 0.2 µM) | relative viability (Vandetanib + Decitabine; first compound 0.6325 µM) | relative viability (Vandetanib + Decitabine; first compound 2 µM) | relative viability ([2]; first compound 0.005 µM) |
| --- | --- | --- | --- | --- | --- | --- | --- | --- | --- | --- | --- | --- | --- | --- | --- | --- | --- | --- | --- | --- |
| LK-2 | 1.21 | 1.21 | 1.29 | 1.06 | 1.64 | 0.931 | 0.917 | 1.15 | 0.819 | 0.761 | 0.759 | 0.913 | 0.936 | 0.721 | 0.307 | 0.293 | 0.317 | 0.315 | 0.271 | – |
| LOU-NH91 | 0.942 | 0.884 | 0.863 | 0.9 | 0.925 | 0.758 | 0.688 | 0.739 | 0.724 | 0.709 | 0.561 | 0.553 | 0.535 | 0.445 | 0.816 | 0.734 | 0.681 | 0.679 | 0.66 | 0.799 |
| LU99A | 0.727 | 0.853 | 0.701 | 0.843 | 0.789 | 1.02 | 0.886 | 1.17 | 0.976 | 0.794 | 0.73 | 0.734 | 0.679 | 0.761 | 0.804 | 0.828 | 0.676 | 0.834 | 0.771 | 0.704 |
| LXF-289 | 0.898 | 1.02 | 0.988 | 1.01 | 0.826 | 0.914 | 0.915 | 1 | 0.864 | 0.94 | 0.921 | 1 | 0.937 | 0.934 | 0.376 | 0.382 | 0.362 | 0.348 | 0.393 | 0.803 |
| NCI-H23 | 0.83 | 0.995 | 0.873 | 1.02 | 1.07 | 1.16 | 1.12 | 1.22 | 1.14 | 0.782 | 0.8 | 0.769 | 0.914 | 0.688 | 0.358 | 0.328 | 0.346 | 0.293 | 0.325 | – |
| NCI-H322M | 0.887 | 0.983 | 0.838 | 0.972 | 0.982 | 0.487 | 0.592 | 0.687 | 0.504 | 1.14 | 1.1 | 1.24 | 1.04 | 1.15 | 0.688 | 0.658 | 0.763 | 0.718 | 0.577 | 0.545 |
| NCI-H460 | 0.969 | 1.15 | 1.06 | 1.08 | 1.08 | 1.12 | 1.06 | 1.85 | 0.273 | 1.13 | 0.999 | 0.0215 | 1.25 | 1.09 | 0.459 | 0.446 | 0.338 | 0.532 | 0.49 | – |
| NCI-H520 | 0.718 | 0.983 | 0.853 | 0.878 | 0.842 | 0.818 | 1.01 | 1.15 | 0.819 | 0.946 | 1.04 | 1.08 | 1.07 | 1.04 | 0.496 | 0.483 | 0.429 | 0.495 | 0.502 | 0.672 |
| NCI-H596 | 0.656 | 0.955 | 0.741 | 0.853 | 0.971 | 1.11 | 1.07 | 1.23 | 0.937 | 0.942 | 0.976 | 1.05 | 0.94 | 0.795 | 0.986 | 0.98 | 0.983 | 0.979 | 0.978 | 0.921 |
| NCI-H647 | 1.08 | 1.27 | 1.28 | 1.32 | 1.14 | 1.34 | 1.11 | 1.3 | 0.546 | 0.943 | 1.09 | 1.16 | 1.17 | 1.06 | 0.356 | 0.396 | 0.349 | 0.35 | 0.41 | – |
| NCI-H727 | 1.07 | 0.73 | 0.922 | 1.03 | 0.809 | 0.821 | 0.813 | 0.83 | 0.795 | 0.45 | 0.468 | 0.528 | 0.449 | 0.287 | 0.827 | 0.798 | 0.938 | 0.885 | 0.492 | 0.857 |
| NCI-H838 | 0.981 | 1.04 | 0.99 | 0.928 | 0.926 | 0.962 | 1.12 | 1.15 | 0.95 | 1.13 | 1.13 | 1.15 | 1.12 | 1.07 | 0.489 | 0.399 | 0.503 | 0.457 | 0.451 | 0.916 |
| NCI-H1355 | 0.929 | 1.06 | 0.96 | 1.08 | 0.923 | 1.03 | 1 | 1.14 | 0.931 | 0.931 | 0.809 | 0.577 | 1.01 | 1.03 | 0.351 | 0.357 | 0.369 | 0.339 | 0.363 | 1.18 |
| NCI-H1395 | 0.868 | 0.912 | 1.05 | 0.996 | 0.967 | – | 1.17 | 1.08 | 1.08 | 1.11 | 1.06 | 1.04 | 1.25 | 1.29 | 0.737 | 0.704 | 0.655 | 0.788 | 0.74 | 0.953 |
| NCI-H1437 | 1.26 | 1.3 | 1.27 | 1.32 | 1.23 | 0.902 | 0.987 | 0.9 | 0.704 | 1.03 | 1.06 | 1.16 | 1.08 | 1.08 | 0.534 | 0.559 | 0.556 | 0.551 | 0.545 | 0.762 |
| NCI-H1650 | 1.02 | 1.38 | 0.919 | 1.55 | 0.787 | 0.658 | 0.758 | 0.829 | 0.863 | 1.15 | 1.02 | – | 1.1 | 1.13 | 0.361 | 0.451 | 0.413 | 0.502 | 0.403 | 0.894 |
